According to ChEMBL document CHEMBL1148807 (J Med Chem, 2007):
The source made the active and inactive calls. The rule behind the calls is not given here. Non-standard residues stand in square brackets, D forms with d. Residues, ends and D or L forms follow the SMILES beside them. *: point of attachment. X1 = O=C(Cc1ccc(O)cc1)*

How the values were obtained:
Vasopressin V1a receptor [1] = target: T1, Vasopressin V1a receptor (Homo sapiens, UniProt P37288); experiment: Agonist activity at human vasopressin V1a receptor expressed in CHO cells assessed as accumulation of inositol phosphate up to 1 uM; assay type: functional, cell-based
Target sequence in this assay (P37288 whole entry, looked up): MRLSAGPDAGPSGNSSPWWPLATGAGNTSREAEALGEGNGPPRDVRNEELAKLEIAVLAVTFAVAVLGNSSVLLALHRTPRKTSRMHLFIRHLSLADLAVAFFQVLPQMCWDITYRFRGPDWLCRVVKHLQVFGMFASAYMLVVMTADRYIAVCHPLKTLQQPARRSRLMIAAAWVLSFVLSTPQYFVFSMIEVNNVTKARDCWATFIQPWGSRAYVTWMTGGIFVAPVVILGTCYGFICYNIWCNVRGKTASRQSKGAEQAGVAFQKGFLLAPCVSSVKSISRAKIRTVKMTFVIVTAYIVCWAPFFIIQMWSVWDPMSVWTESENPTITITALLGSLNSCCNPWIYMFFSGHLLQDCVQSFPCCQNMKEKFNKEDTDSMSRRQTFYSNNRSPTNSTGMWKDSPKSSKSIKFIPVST

[2] = target: T2, Oxytocin receptor (Homo sapiens) (UniProt P30559); experiment: Agonist activity at human oxytocin receptor expressed in CHO cells assessed as accumulation of inositol phosphate up to 1 uM; assay type: functional, cell-based
T2 sequence (whole entry): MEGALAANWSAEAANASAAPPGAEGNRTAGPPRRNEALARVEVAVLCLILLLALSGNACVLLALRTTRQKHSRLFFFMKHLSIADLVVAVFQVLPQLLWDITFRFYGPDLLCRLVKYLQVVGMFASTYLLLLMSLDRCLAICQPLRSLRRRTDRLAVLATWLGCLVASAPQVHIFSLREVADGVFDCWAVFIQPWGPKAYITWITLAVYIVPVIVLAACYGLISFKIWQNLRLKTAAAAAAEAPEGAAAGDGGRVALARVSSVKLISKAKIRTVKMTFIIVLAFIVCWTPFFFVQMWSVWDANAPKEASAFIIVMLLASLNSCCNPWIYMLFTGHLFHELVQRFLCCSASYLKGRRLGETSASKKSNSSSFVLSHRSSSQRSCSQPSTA

[3] = target: T2, Oxytocin receptor (Homo sapiens); experiment: Antagonist activity at oxytocin receptor expressed in CHO cells assessed as AVP-induced inositol monophosphate accumulation by IP-one ELISA test; assay type: functional, cell-based
Vasopressin V1b receptor = target: T3, Vasopressin V1b receptor (Homo sapiens, UniProt P47901); experiment: Displacement of [3H]AVP from human vasopressin V1b receptor expressed in CHO cells; assay type: cell-based
T3 sequence (P47901 whole entry): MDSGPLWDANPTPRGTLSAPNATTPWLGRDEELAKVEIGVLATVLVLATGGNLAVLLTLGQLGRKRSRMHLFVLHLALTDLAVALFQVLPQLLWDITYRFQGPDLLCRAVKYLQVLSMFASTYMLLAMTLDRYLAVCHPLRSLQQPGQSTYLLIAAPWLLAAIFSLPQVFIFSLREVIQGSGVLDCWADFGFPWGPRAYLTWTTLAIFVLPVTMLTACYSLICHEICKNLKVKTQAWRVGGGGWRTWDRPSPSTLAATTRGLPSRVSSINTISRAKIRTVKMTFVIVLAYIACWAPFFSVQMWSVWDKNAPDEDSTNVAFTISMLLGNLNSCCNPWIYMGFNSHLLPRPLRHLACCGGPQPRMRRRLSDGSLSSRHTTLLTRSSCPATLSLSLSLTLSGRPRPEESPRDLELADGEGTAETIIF

Vasopressin V1a receptor [4] = target: T1, Vasopressin V1a receptor; experiment: Displacement of [3H]AVP from human vasopressin V1a receptor expressed in CHO cells; assay type: cell-based
Target sequence in this assay (P37288 whole entry): as the sequence (P37288 whole entry, looked up) above

Vasopressin V2 receptor = Vasopressin V2 receptor (Homo sapiens, UniProt P30518); experiment: Displacement of [3H]AVP from human vasopressin V2 receptor expressed in CHO cells; assay type: cell-based
Oxytocin receptor = target: T4, Oxytocin receptor (Homo sapiens, UniProt P30559); experiment: Displacement of [3H]AVP from human oxytocin receptor expressed in CHO cells; assay type: cell-based
T4 sequence (P30559 whole entry): T2 sequence (whole entry)

Vasopressin V1a receptor [5] = target: T1, Vasopressin V1a receptor; experiment: Antagonist activity at human vasopressin V1a receptor expressed in CHO cells assessed as AVP-induced inositol monophosphate accumulation by IP-one ELISA test; assay type: functional, cell-based
Target sequence in this assay (P37288 whole entry, looked up): as the sequence (P37288 whole entry, looked up) above

Vasopressin V1a receptor [6] = target: T1, Vasopressin V1a receptor; experiment: Inhibition of human vasopressin V1a receptor expressed in COS7 cells by HTRF-FRET assay using 384-well plate membranes; assay type: cell-based; conditions: cos-7
Target sequence in this assay (P37288 whole entry): as the sequence (P37288 whole entry, looked up) above

Vasopressin V1a receptor [7] = target: T1, Vasopressin V1a receptor; experiment: Inhibition of human vasopressin V1a receptor expressed in CHO cells by polarisation binding assay using 96-well plate membranes; assay type: cell-based
Target sequence in this assay (P37288 whole entry): as the sequence (P37288 whole entry, looked up) above

Vasopressin V1a receptor [8] = target: T1, Vasopressin V1a receptor; experiment: Inhibition of human vasopressin V1a receptor expressed in CHO cells by polarisation binding assay using 384-well plate membranes; assay type: cell-based
Target sequence in this assay (P37288 whole entry): as the sequence (P37288 whole entry, looked up) above

Vasopressin V1a receptor [9] = target: T1, Vasopressin V1a receptor; experiment: Inhibition of human vasopressin V1a receptor expressed in COS7 cells by HTRF-FRET assay using 96-well plate cells; assay type: cell-based; conditions: cos-7
Target sequence in this assay (P37288 whole entry): as the sequence (P37288 whole entry, looked up) above

Vasopressin V1a receptor [10] = target: T1, Vasopressin V1a receptor; experiment: Inhibition of human vasopressin V1a receptor expressed in COS7 cells by HTRF-FRET assay using 96-well plate membranes; assay type: cell-based; conditions: cos-7
Target sequence in this assay (P37288 whole entry): as the sequence (P37288 whole entry, looked up) above

Vasopressin V2 receptor, sequence (P30518 whole entry): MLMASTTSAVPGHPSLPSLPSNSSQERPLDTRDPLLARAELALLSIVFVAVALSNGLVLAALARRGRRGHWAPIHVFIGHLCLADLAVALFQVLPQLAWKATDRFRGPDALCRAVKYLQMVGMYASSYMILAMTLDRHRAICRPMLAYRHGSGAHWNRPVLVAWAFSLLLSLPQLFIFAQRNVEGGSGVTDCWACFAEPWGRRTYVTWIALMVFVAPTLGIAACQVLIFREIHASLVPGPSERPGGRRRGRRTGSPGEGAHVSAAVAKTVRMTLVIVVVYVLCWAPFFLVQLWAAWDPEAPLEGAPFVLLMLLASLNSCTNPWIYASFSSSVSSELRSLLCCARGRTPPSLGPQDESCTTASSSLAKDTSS

Activity (Vasopressin V1a receptor [1])	Activity [2]	Kinact [3] [nM]	Ki (Vasopressin V1b receptor) [nM]	Ki (Vasopressin V1a receptor [4]) [nM]	Ki (Vasopressin V2 receptor) [nM]	Ki (Oxytocin receptor) [nM]	Kinact (Vasopressin V1a receptor [5]) [nM]	Ki (Vasopressin V1a receptor [6]) [nM]	Ki (Vasopressin V1a receptor [7]) [nM]	Ki (Vasopressin V1a receptor [8]) [nM]	Ki (Vasopressin V1a receptor [9]) [nM]	Ki (Vasopressin V1a receptor [10]) [nM]	SMILES
inactive	inactive	0.17	100	0.09	> 1000	1.04	0.28	–	–	–	–	–	CC1CC(C)(C)Nc2c1cc1c(c2S(=O)(=O)O)OC2C(=C1c1c(Cl)c(SCC(=O)NCCCCCC(=O)N(C(=O)[C@H]3CCN(C(=O)[C@H](CCCNC(=N)N)NC(=O)[C@H](CC(N)=O)NC(=O)[C@H](CCC(N)=O)NC(=O)[C@H](Cc4ccccc4)NC(=O)[C@@H](Cc4ccc(O)cc4)N(C)C(=O)CCc4ccc(O)cc4)C3)[C@@H](CCCCN)C(N)=O)c(Cl)c(Cl)c1C(=O)O)CC1C(=NC(C)(C)CC1C)C2S(=O)(=O)O (stereo partly drawn)
–	–	–	–	–	–	–	–	0.21	0.036	0.032	0.28	0.21	COc1ccc(C[C@@H](NC(=O)Cc2ccc(O)cc2)C(=O)N[C@@H](Cc2ccccc2)C(=O)N[C@@H](CCC(N)=O)C(=O)N[C@@H](CC(N)=O)C(=O)N[C@@H](CCCN=C(N)N)C(=O)N2CCC[C@H]2C(=O)N[C@@H](CCCN=C(N)N)C(N)=O)cc1 (X1-[dY](Me)FQNRPR-NH2)
